The source of these data is patent US20110275637A1, “PIPERAZINE DERIVATIVES AND THEIR USE AS LEPTIN RECEPTOR MODULATORS” (priority 2008, published 2011).

Test [1] deals with JEG-3 cells. As to the kind of experiment: JEG-3 protocol: [3H]-thymidine incorporation / proliferation (leptin assay in non-recombinant system). Format: cell-based. The settings on record: FIG. 6. From the text: Leptin Assay in Non-Recombinant System
It seems that overexpression of the receptor (as well as the possibility for different drugs to act on different parts of the signaling pathway triggered by leptin association with its receptor) results in most cases in the absence of activity of the drugs tested.
The leptin receptor expression in non-recombinant system is often fluctuating and care must be given to identify a system where signal stability remains within experiments. Using such a system, leptin receptor antagonist mimetics could be identified by evaluating is their action vs. leptin (see below).
Leptin is produced chiefly in adipose cells, but in humans, mRNA encoding leptin is also present in the placenta. Here, leptin might play an important proliferative role in the microvasculature. The possibility to use this hypothesis in a native cell line was evaluated.
In JEG-3 cells (choriocarcinoma cell line) leptin is able to stimulate proliferation up to 3 fold (Biol. Reprod. (2007) 76: 203-10). […] The radioactivity incorporated by the cells is an index of their proliferative activity and is measured in counts per minute (CPM) with a liquid scintillation beta counter. […]

For test [2], the system named is JEG-3 cells. The settings on record: Biol. Reprod. (2007) 76: 203-10; cited from earlier work.

On to “Leptin: a hormone synthesized in fat cells that is believed to act in the hypothalamus to reduce food intake and body weight”, for which the EC50 with JEG-3 cells [1] (JEG-3 cells (choriocarcinoma cell line), read-out: EC50, concentration-dependent increase in [3H]-thymidine incorporation) was determined as 2.1 nM. Further, in the test with JEG-3 cells [1] (JEG-3 cells), the “concentration of maximal effect on [3H]-thymidine incorporation” value turned out to be 100 nM. For the same substance, the stimulation of proliferation entry in the test on JEG-3 cells [2] is given as “up to 3 fold”.
